The values that follow come from patent US4808584A, “Quinolinecarboxylic acid derivatives and antibacterial agent containing the same” (Kanebo, Ltd., priority 1987, dated 1989).

Assay [1] concerns methicillin resistant Staphylococcus aureus. The assay is described as follows: Minimum inhibitory concentration against clinically isolated methicillin resistant Staphylococcus aureus. Format: cell-based. As to the method:
The compound (B) was dissolved in sterilized distilled water, and ofloxacin in 0.1N aqueous potassium hydroxide, to prepare a solution of 5000 μg/ml in concentration each. The above solutions were then diluted with sterilized distilled water to prepare a standard solution with a concentration of the test compound: 1000 μg/ml each. The test was carried out by a method approved by Japan Society of Chemotherapy (ibidem) to measure minimum inhibitory concentration (MIC) against 54 strains of clinically isolated methicillin resistant Staphylococcus aureus, from which there were calculated a range of MIC (MICrange) of the test compound against these resistant strains, a minimum concentration for inhibiting the growth of the strains by 50% (MIC50) and a minimum concentration for inhibiting the growth of the strains by 90% (MIC90).

For the next assay, the system named is E. coli KC-14. The assay is described as follows: Effect on treatment of infectiousness of the genito-urinary tract. Format: in vivo, ICR female mice. The conditions noted are these: Escherichia coli, KC14, 48 h; E. coli KC-14, 5.6×10^5 CFU/mouse into urinary bladder; oral; not more than 10^4 living bacteria/1 g of kidney regarded as effective. As to the method:
2. Test microorganism and inoculum size E. coli KC-14 (5.6×10^5 CFU/mouse) 3. Method:
A microorganism solution (0.1 ml) prepared in the same manner as described in Experiment 3 was introduced into urinary bladder through urinary tract of ICR female mice (5 weeks age, weighing 20 to 22 g, 5 mice in each group), and then urinary meatus was clasped with clip for 4 hours to infect the animals. After taking off the clip, the compound (B) of the present invention dissolved in sterilized distilled water or ofloxacin suspended in 0.5% aqueous sodium carboxymethyl cellulose solution was orally administered to mice. Two days after the infection, mice kidneys were taken out and weighed, to which PBS (Dulbecco's phosphate buffered saline) was added and the mixture was homogenized. The homogenate was then diluted with PBS and inoculated onto a plate of modified Drigalski Agar (BTB lactose agar "Nissui", made by Nissui Seiyaku K.K., Japan) and cultured at 37° C. for 18 hours. The number of the colonies of infectious bacteria grown on the plate was counted. The number of living bacteria per 1 g of kidney was calculated from the number of colonies and the kidney weight. The living bacteria number/1 g of kidney of not more than 10^4 was regarded as effective and an effective dose for 50% mice (ED50) was calculated by Weil method.

In assay [2] the test system is Staphylococcus aureus IID 803. The assay is described as follows: Effect on treatment of general infectious disease. Format: in vivo, ddY male mice. To be noted: IID803, 168 h, S. aureus IID 803, 1.0×10^6 CFU/mouse i.p., oral one hour after infection, survival after one week. As to the method: Staphylococcus aureus IID 803 (1.0×10^6 CFU/mouse)
(§1) The test microorganisms were subjected to standing culture in Trypto-Soya Agar "Nissui" (made by Nissui Seiyaku K.K., Japan) at 37° C. for 16 to 18 hours. The culture was then diluted with PBS (Dulbecco's phosphate buffered saline) and mixed with an equivalent amount of 10% (w/v) Mucin (BACTO MUCIN BACTERIOLOGICAL, made by Difco Co.) to prepare a microorganism solution. The thus prepared microorganism solution (0.5 ml each) was intraperitoneally innoculated to ddY male mice (4 weeks age, weighing 20-22 g, 5 mice in each group), to infect the animals. One hour after the infection, the compound (B) of the present invention dissolved in sterilized distilled water or ofloxacin suspended in 0.5% (w/v) aqueous sodium carboxymethyl cellulose solution was orally adiministered to mice.
(§2) The mice were daily observed for one week, and from the survival number of mice after one week, the 50% effective dose (ED50) was calculated by Weil method.

Assay [3] deals with Escherichia coli KC-14. The assay is described as follows: Effect on treatment of general infectious disease. Format: in vivo, ddY male mice. To be noted: KC14, 168 h, E. coli KC-14, 1.2×10^4 CFU/mouse i.p., oral one hour after infection, survival after one week. On the procedure:
Escherichia coli KC-14 (1.2×10^4 CFU/mouse)
as §1, §2

For assay [4], the system named is Pseudomonas aeruginosa E-2. The assay is described as follows: Effect on treatment of general infectious disease. Format: in vivo, ddY male mice. The conditions noted are these: E2, 168 h, P. aeruginosa E-2, 1.6×10^4 CFU/mouse i.p., oral one hour after infection, survival after one week. As to the method: Pseudomonas aeruginosa E-2 (1.6×10^4 CFU/mouse)
as §1, §2

The test system of assay [5] is Bacillus subtilis ATCC 6633. The assay is described as follows: Minimum inhibitory concentration (MIC). To be noted: ATCC6633; Bacillus subtilis ATCC 6633, Gram +; read-out: Minimum inhibitory concentration (MIC). Format: cell-based. A digest of the protocol:
(§3)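 Test compounds were dissolved at 5000 μg/ml (stock) in 0.1N aqueous KOH or in sterilized distilled water, then diluted with sterile water to a 1000 μg/ml standard solution. MICs were determined by the Japan Society of Chemotherapy standard method.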

For assay [6], the system named is Klebsiella pneumoniae PCI 602. The assay is described as follows: Minimum inhibitory concentration (MIC). Format: cell-based. To be noted: Klebsiella pneumoniae, PCI602, Klebsiella pneumoniae PCI 602, Gram -; read-out: Minimum inhibitory concentration (MIC). A digest of the protocol:
as §3

The next assay deals with Enterobacter cloacae 963. The assay is described as follows: Minimum inhibitory concentration (MIC). Format: cell-based. The conditions noted are these: Enterobacter cloacae 963, Gram -. The method in brief: as §3
For assay [7], the system named is Morganella morganii IFO 3848. The assay is described as follows: Minimum inhibitory concentration (MIC). Format: cell-based. To be noted: IFO3848; Morganella morganii IFO 3848, Gram -. A digest of the protocol:
as §3

Assay [8] relates to Micrococcus luteus ATCC 9341. The assay is described as follows: Minimum inhibitory concentration (MIC). Format: cell-based. To be noted: ATCC9341; Micrococcus luteus ATCC 9341, Gram +. The method in brief: as §3
For assay [9], the system named is Pseudomonas aeruginosa IFO 3445. The assay is described as follows: Minimum inhibitory concentration (MIC). Format: cell-based. The conditions noted are these: Pseudomonas aeruginosa, IFO3445, Pseudomonas aeruginosa IFO 3445, Gram -. A digest of the protocol: as §3
Assay [10] concerns Staphylococcus aureus FDA 209P JC-1. The assay is described as follows: Minimum inhibitory concentration (MIC). Format: cell-based. To be noted: FDA209P; Staphylococcus aureus FDA 209P JC-1, Gram +. A digest of the protocol:
as §3

Assay [11] concerns Pseudomonas aeruginosa NCTC 10490. The assay is described as follows: Minimum inhibitory concentration (MIC). Format: cell-based. To be noted: Pseudomonas aeruginosa, NCTC10490, Pseudomonas aeruginosa NCTC 10490, Gram -. The method in brief: as §3
Another assay deals with Shigella sonnei EW-33. The assay is described as follows: Minimum inhibitory concentration (MIC). Format: cell-based. To be noted: EW33; Shigella sonnei EW-33, Gram -. A digest of the protocol: as §3
For assay [12], the system named is Acinetobacter calcoaceticus AC 54. The assay is described as follows: Minimum inhibitory concentration (MIC). Format: cell-based. The conditions noted are these: Acinetobacter calcoaceticus, AC54, Acinetobacter calcoaceticus AC 54, Gram -. The method in brief: as §3
Assay [13] concerns Escherichia coli KC-14. The assay is described as follows: Minimum inhibitory concentration (MIC). Format: cell-based. To be noted: KC14; Escherichia coli KC-14, Gram -. A digest of the protocol:
as §3

A word on the MIC50: it is an inhibitory concentration at the 50% level, which refers to growth in some studies and to a panel of isolates in others. A low value points to greater potency. As a reminder, the MIC90 is an inhibitory concentration at the 90% level, which refers to growth in some studies and to a panel of isolates in others. The ED50 is the midpoint of the dose-response relation.

≈ marks a conversion by molar mass, not a printed value.

Turning to `CC1COc2c(N3CCN(C)CC3)c(F)cc3c(=O)c(C(=O)O)cn1c23` (racemic) [Ofloxacin, reference compound], the MIC in [1] (54 strains of clinically isolated methicillin resistant Staphylococcus aureus) was 0.39 to 1.56 µg/mL (≈ 1.08 to 4.32 µM); in assay [5], 0.1 µg/mL (≈ 0.277 µM); in assay [6], 0.05 µg/mL (≈ 0.138 µM); in the assay on Enterobacter cloacae 963 it was 0.2 µg/mL (≈ 0.553 µM); in [7] it was 0.1 µg/mL (≈ 0.277 µM); in assay [8] it was 3.13 µg/mL. In addition, the MIC in assay [9] is 1.56 µg/mL (≈ 4.32 µM); in [10], 0.39 µg/mL; in assay [11], 1.56 µg/mL (≈ 4.32 µM); in the assay on Shigella sonnei EW-33, 0.05 µg/mL (≈ 0.138 µM); in [12] it was 0.39 µg/mL (≈ 1.08 µM); against Escherichia coli KC-14 [13] it was 0.1 µg/mL (≈ 0.277 µM). For the same compound, the MIC50 in assay [1] (Staphylococcus aureus, minimum concentration for inhibiting the growth of the strains by 50%, 54 strains) came to 0.39 µg/mL (≈ 1.08 µM). This compound also registered an MIC90 in [1] (Staphylococcus aureus, minimum concentration for inhibiting the growth of the strains by 90%, 54 strains) of 1.56 µg/mL (≈ 4.32 µM). For the same compound, the ED50 with E. coli KC-14 came to 50 mg/kg; in [2], 11.5 mg/kg; in the assay with Escherichia coli KC-14 [3], 1.1 mg/kg; in assay [4], 22.9 mg/kg.
